From article PMC11392244, “Characterization of a unique catechol-O-methyltransferase as a molecular drug target in parasitic filarial nematodes” (PLOS Neglected Tropical Diseases, 2024)
Where “and” joins values, the source holds several entries; their conditions need not be identical. Identical values can stand only once. Like-named read-outs stand apart in the source and are kept apart here.

What was measured:
DiMT protein = format: biochemical, Dirofilaria immitis; details: for IC50: read-out: IC 50 (μM ± SEM)
D. immitis microfilariae = assay: In vitro efficacy against live D. immitis microfilariae (motility, completely immotile %); format: cell-based, Dirofilaria immitis; details: for Completely Immotile Microfilariae (%): single experiments; for effect on microfilariae: up to 120 h of culture
mammalian cells = details: read-out: Cytotoxicity IC50, ref Zhang et al., [30]; cited from earlier work

CO[C@@]12[C@H](COC(N)=O)C3=C(C(=O)C(C)=C(N)C3=O)N1C[C@H]1[C@@H]2N1C (stereo partly shown) [NSC56410]
Mean Percent Inhibition (DiMT protein; 50 µM): 18.0% and 26.7% and 20.5% | Mean Percent Inhibition, Average (DiMT protein; 50 µM): 21.7% | Mean Percent Inhibition (DiMT protein; 100 µM): 26.6% and 33.3% and 21.3% | Mean Percent Inhibition, Average (DiMT protein; 100 µM): 27.1% | Mean Percent Inhibition (DiMT protein; 150 µM): 31.0% and 35.0% and 25.0% | Mean Percent Inhibition, Average (DiMT protein; 150 µM): 30.3% | Mean Percent Inhibition (DiMT protein; 200 µM): 34.6% and 41.9% and 31.9% | Mean Percent Inhibition, Average (DiMT protein; 200 µM): 36.1% | Mean Percent Inhibition (DiMT protein; 250 µM): 41.2% and 38.8% and 51.8% | Mean Percent Inhibition, Average (DiMT protein; 250 µM): 43.9% | Mean Percent Inhibition (DiMT protein; 300 µM): 48.3% and 48.6% and 46.0% | Mean Percent Inhibition, Average (DiMT protein; 300 µM): 47.6% | Mean Percent Inhibition (DiMT protein; 350 µM): 53.8% and 59.3% and 53.7% | Mean Percent Inhibition, Average (DiMT protein; 350 µM): 55.6% | Mean Percent Inhibition (DiMT protein; 400 µM): 62.5% and 63.8% | Mean Percent Inhibition, Average (DiMT protein; 400 µM): 62.9% | IC50 (DiMT protein): 300 ± 2.5 µM | Mean completely Immotile (%) (D. immitis microfilariae; 25 µM, 0 h): 0% | Mean completely Immotile (%) (D. immitis microfilariae; 25 µM, 24 h): 2.33% | Mean completely Immotile (%) (D. immitis microfilariae; 25 µM, 48 h): 7.67% | Mean completely Immotile (%) (D. immitis microfilariae; 25 µM, 72 h): 12.5% | Mean completely Immotile (%) (D. immitis microfilariae; 25 µM, 96 h): 30.5% | Mean completely Immotile (%) (D. immitis microfilariae; 25 µM, 120 h): 45% | Mean completely Immotile (%) (D. immitis microfilariae; 50 µM, 0 h): 0% | Mean completely Immotile (%) (D. immitis microfilariae; 50 µM, 24 h): 13% | Mean completely Immotile (%) (D. immitis microfilariae; 50 µM, 48 h): 21.33% | Mean completely Immotile (%) (D. immitis microfilariae; 50 µM, 72 h): 54.33% | Mean completely Immotile (%) (D. immitis microfilariae; 50 µM, 96 h): 79.33% | Mean completely Immotile (%) (D. immitis microfilariae; 50 µM, 120 h): 97.67% | Mean completely Immotile (%) (D. immitis microfilariae; 75 µM, 0 h): 0% | Mean completely Immotile (%) (D. immitis microfilariae; 75 µM, 24 h): 38.67% | Mean completely Immotile (%) (D. immitis microfilariae; 75 µM, 48 h): 59.33% | Mean completely Immotile (%) (D. immitis microfilariae; 75 µM, 72 h): 86% | Mean completely Immotile (%) (D. immitis microfilariae; 75 µM, 96 h): 98.33% | Mean completely Immotile (%) (D. immitis microfilariae; 75 µM, 120 h): 100% | Mean completely Immotile (%) (D. immitis microfilariae; 100 µM, 0 h): 0% | Mean completely Immotile (%) (D. immitis microfilariae; 100 µM, 24 h): 61% | Mean completely Immotile (%) (D. immitis microfilariae; 100 µM, 48 h): 77.67% | Mean completely Immotile (%) (D. immitis microfilariae; 100 µM, 72 h): 98% | Mean completely Immotile (%) (D. immitis microfilariae; 100 µM, 96 h): 100% | Mean completely Immotile (%) (D. immitis microfilariae; 100 µM, 120 h): 100% | EC50 (D. immitis microfilariae; Dirofilaria immitis, 96 h, read-out: Anti-parasitic EC50 (μM), 96 h post-treatment): 32.1 µM | EC50 (D. immitis microfilariae; read-out: Anti-parasitic EC50, 96 h post-treatment): 32.2 µM | Completely Immotile Microfilariae (%) (D. immitis microfilariae; 25 µM, 0 h): 0% | Completely Immotile Microfilariae (%) (D. immitis microfilariae; 25 µM, 24 h): 2% and 4% and 1% | Completely Immotile Microfilariae (%) (D. immitis microfilariae; 25 µM, 48 h): 8% and 10% and 5% | Completely Immotile Microfilariae (%) (D. immitis microfilariae; 25 µM, 72 h): 15% and 12.5% and 10% | Completely Immotile Microfilariae (%) (D. immitis microfilariae; 25 µM, 96 h): 35% and 29.5% and 27% | Completely Immotile Microfilariae (%) (D. immitis microfilariae; 25 µM, 120 h): 50% and 44% and 41% | Completely Immotile Microfilariae (%) (D. immitis microfilariae; 50 µM, 0 h): 0% | Completely Immotile Microfilariae (%) (D. immitis microfilariae; 50 µM, 24 h): 15% and 11.5% and 12.5% | Completely Immotile Microfilariae (%) (D. immitis microfilariae; 50 µM, 48 h): 23% and 21% and 20% | Completely Immotile Microfilariae (%) (D. immitis microfilariae; 50 µM, 72 h): 56% and 50% and 57% | Completely Immotile Microfilariae (%) (D. immitis microfilariae; 50 µM, 96 h): 80% and 76% and 82% | Completely Immotile Microfilariae (%) (D. immitis microfilariae; 50 µM, 120 h): 100% and 95% and 98% | Completely Immotile Microfilariae (%) (D. immitis microfilariae; 75 µM, 0 h): 0% | Completely Immotile Microfilariae (%) (D. immitis microfilariae; 75 µM, 24 h): 36% and 40% | Completely Immotile Microfilariae (%) (D. immitis microfilariae; 75 µM, 48 h): 55% and 60% and 63% | Completely Immotile Microfilariae (%) (D. immitis microfilariae; 75 µM, 72 h): 83% and 88% and 87% | Completely Immotile Microfilariae (%) (D. immitis microfilariae; 75 µM, 96 h): 100% and 95% | Completely Immotile Microfilariae (%) (D. immitis microfilariae; 75 µM, 120 h): 100% | Completely Immotile Microfilariae (%) (D. immitis microfilariae; 100 µM, 0 h): 0% | Completely Immotile Microfilariae (%) (D. immitis microfilariae; 100 µM, 24 h): 60% and 58% and 65% | Completely Immotile Microfilariae (%) (D. immitis microfilariae; 100 µM, 48 h): 75% and 78% and 80% | Completely Immotile Microfilariae (%) (D. immitis microfilariae; 100 µM, 72 h): 95% and 100% and 99% | Completely Immotile Microfilariae (%) (D. immitis microfilariae; 100 µM, 96 h): 100% | Completely Immotile Microfilariae (%) (D. immitis microfilariae; 100 µM, 120 h): 100% | effect on microfilariae (D. immitis microfilariae): killing effect | IC50 (mammalian cells): 188 µM

CO[C@@H]1/C=C\O[C@]2(C)Oc3c(C)c(O)c4c(O)c(c(CN(C)C)c(O)c4c3C2=O)NC(=O)/C(C)=C\C=C[C@@H](C)[C@@H](O)[C@H](C)[C@@H](O)[C@H](C)[C@H](OC(C)=O)[C@@H]1C [NSC145612]
Mean Percent Inhibition (DiMT protein; 50 µM): 68.4% and 38.5% and 36.2% | Mean Percent Inhibition, Average (DiMT protein; 50 µM): 47.7% | Mean Percent Inhibition (DiMT protein; 100 µM): 57.6% and 50.0% and 61.2% | Mean Percent Inhibition, Average (DiMT protein; 100 µM): 56.3% | Mean Percent Inhibition (DiMT protein; 150 µM): 66.2% and 62.4% and 82.9% | Mean Percent Inhibition, Average (DiMT protein; 150 µM): 70.5% | Mean Percent Inhibition (DiMT protein; 200 µM): 77.2% and 75.4% and 75.6% | Mean Percent Inhibition, Average (DiMT protein; 200 µM): 76.1% | Mean Percent Inhibition (DiMT protein; 250 µM): 84.0% and 87.6% and 81.7% | Mean Percent Inhibition, Average (DiMT protein; 250 µM): 84.4% | IC50 (DiMT protein): 62.1 ± 1.8 µM | Mean completely Immotile (%) (D. immitis microfilariae; 25 µM, 0 h): 0% | Mean completely Immotile (%) (D. immitis microfilariae; 25 µM, 24 h): 4.67% | Mean completely Immotile (%) (D. immitis microfilariae; 25 µM, 48 h): 10.17% | Mean completely Immotile (%) (D. immitis microfilariae; 25 µM, 72 h): 25% | Mean completely Immotile (%) (D. immitis microfilariae; 25 µM, 96 h): 38.33% | Mean completely Immotile (%) (D. immitis microfilariae; 25 µM, 120 h): 48.67% | Mean completely Immotile (%) (D. immitis microfilariae; 50 µM, 0 h): 0% | Mean completely Immotile (%) (D. immitis microfilariae; 50 µM, 24 h): 12% | Mean completely Immotile (%) (D. immitis microfilariae; 50 µM, 48 h): 26.33% | Mean completely Immotile (%) (D. immitis microfilariae; 50 µM, 72 h): 43.33% | Mean completely Immotile (%) (D. immitis microfilariae; 50 µM, 96 h): 64% | Mean completely Immotile (%) (D. immitis microfilariae; 75 µM, 0 h): 0% | Mean completely Immotile (%) (D. immitis microfilariae; 75 µM, 24 h): 24.33% | Mean completely Immotile (%) (D. immitis microfilariae; 75 µM, 48 h): 87.33% | Mean completely Immotile (%) (D. immitis microfilariae; 75 µM, 72 h): 96.67% | Mean completely Immotile (%) (D. immitis microfilariae; 75 µM, 96 h): 100% | Mean completely Immotile (%) (D. immitis microfilariae; 75 µM, 120 h): 100% | Mean completely Immotile (%) (D. immitis microfilariae; 100 µM, 0 h): 0% | Mean completely Immotile (%) (D. immitis microfilariae; 100 µM, 24 h): 55.33% | Mean completely Immotile (%) (D. immitis microfilariae; 100 µM, 48 h): 94.33% | Mean completely Immotile (%) (D. immitis microfilariae; 100 µM, 72 h): 100% | Mean completely Immotile (%) (D. immitis microfilariae; 100 µM, 96 h): 100% | Mean completely Immotile (%) (D. immitis microfilariae; 100 µM, 120 h): 100% | EC50 (D. immitis microfilariae; 96 h post-treatment, read-out: Anti-parasitic EC50): 32.2 µM | Completely Immotile Microfilariae (%) (D. immitis microfilariae; 25 µM, 0 h): 0% | Completely Immotile Microfilariae (%) (D. immitis microfilariae; 25 µM, 24 h): 5% and 3% and 6% | Completely Immotile Microfilariae (%) (D. immitis microfilariae; 25 µM, 48 h): 10% and 8% and 12.5% | Completely Immotile Microfilariae (%) (D. immitis microfilariae; 25 µM, 72 h): 28% and 22% and 25% | Completely Immotile Microfilariae (%) (D. immitis microfilariae; 25 µM, 96 h): 41% and 36% and 38% and 50% | Completely Immotile Microfilariae (%) (D. immitis microfilariae; 25 µM, 120 h): 50% and 44% and 52% | Completely Immotile Microfilariae (%) (D. immitis microfilariae; 50 µM, 0 h): 0% | Completely Immotile Microfilariae (%) (D. immitis microfilariae; 50 µM, 24 h): 10% and 12% and 14% | Completely Immotile Microfilariae (%) (D. immitis microfilariae; 50 µM, 48 h): 25% and 23% and 31% | Completely Immotile Microfilariae (%) (D. immitis microfilariae; 50 µM, 72 h): 40% and 44% and 46% | Completely Immotile Microfilariae (%) (D. immitis microfilariae; 50 µM, 96 h): 60% and 64% and 68% and 100% | Completely Immotile Microfilariae (%) (D. immitis microfilariae; 50 µM, 120 h): 100% | Completely Immotile Microfilariae (%) (D. immitis microfilariae; 75 µM, 0 h): 0% | Completely Immotile Microfilariae (%) (D. immitis microfilariae; 75 µM, 24 h): 21% and 28% and 24% | Completely Immotile Microfilariae (%) (D. immitis microfilariae; 75 µM, 48 h): 85% and 90% and 87% | Completely Immotile Microfilariae (%) (D. immitis microfilariae; 75 µM, 72 h): 95% and 97% and 98% | Completely Immotile Microfilariae (%) (D. immitis microfilariae; 75 µM, 96 h): 100% | Completely Immotile Microfilariae (%) (D. immitis microfilariae; 75 µM, 120 h): 100% | Completely Immotile Microfilariae (%) (D. immitis microfilariae; 100 µM, 0 h): 0% | Completely Immotile Microfilariae (%) (D. immitis microfilariae; 100 µM, 24 h): 50% and 56% and 60% | Completely Immotile Microfilariae (%) (D. immitis microfilariae; 100 µM, 48 h): 93% and 95% | Completely Immotile Microfilariae (%) (D. immitis microfilariae; 100 µM, 72 h): 100% | Completely Immotile Microfilariae (%) (D. immitis microfilariae; 100 µM, 96 h): 100% | Completely Immotile Microfilariae (%) (D. immitis microfilariae; 100 µM, 120 h): 100% | effect on microfilariae (D. immitis microfilariae): killing effect | IC50 (mammalian cells): 302 µM
